Results from US20190137505A1 (THE ARIZONA BOARD OF REGENTS ON BEHALF OF THE UNIVERSITY OF …, priority 2015, published 2019).

Legend:
[1] = biological target: T1, HSA drug site I (Homo sapiens, UniProt P02768); assay: Prodan displacement assay; assay type: binding; conditions: prodan-HSA 75 μM; 30 min; fluorescence 465 nm emission
T1 construct: purchased Sigma-Aldrich A3782
Method: A solution of human serum albumin (HSA) (20 ml at 10 mg/ml) in 1×PBS pH 7.4 was prepared. A slurry (10 ml) of Lipidex-1000 in methanol was buffer exchanged into 1×PBS and the buffer decanted from the aqueous slurry. The HSA solution was added to the slurry and the mixture was rotated at room temperature for 30 min. The Lipidex slurry was completely removed from HSA by plunging through a 0.22 μm filter using a 60 ml syringe. Prodan (25 mg) was dissolved in of 40% ethanol, 60% methanol (5 ml at a final concentration is 5 mg/ml). A portion (10 ml) of delipidated HSA (10 mg/ml) was incubated with 666.7 μl of the prodan solution (1:10 molar ratio HSA:prodan), and this mixture was rotated at room temperature for 30 minutes. The HSA-prodan mixture was placed on dry ice and acetone precipitated by adding 40 ml of acetone at −20° C., which was mixed and centrifuged at 3000×g for 10 min to pellet the precipitated HSA-prodan. Two additional washes of cold acetone were used to remove any free prodan. The HSA pellet was brought to 10 ml with PBS and mixed and resuspended.
A 2-fold serial dilution of MG in 1×PBS pH 7.4 was prepared starting from a stock solution of 10 mM. […] An aliquot (300 μl) of each reaction was read using a Gemini XPS Fluorescence Microplate Reader (Molecular Devices) in endpoint mode with 360 nm excitation, 420 nm filter cut-off, and 465 nm emission.

[2] = biological target: T2, Pg (Homo sapiens, UniProt P00747); assay: Two-dimensional gel electrophoresis of MG-modified Pg (isoelectric point shift); assay type: physicochemical; conditions: 24-hr 500 μM MG; 4-7 pH isoelectric focusing strip
T2 construct: Glu-Pg, uPA, tPA, fibrinogen, and chromogenic substrate for Pn were purchased from Molecular Innovations (Novi, Mich.); purchased Molecular Innovations (Novi, Mich.)
Method: (§1) 10 μg Pg was incubated with MG (50-500 μM) in tris-buffered saline (TBS) for 24 hours at 37° C. Following modification, sample volumes were increased to 150 μL and placed in 5 kDa spin filters to reduce volume and remove excess MG from solution.
MG-modified (500 μM) and unmodified Pg control (same incubation conditions without MG) were added to 250 μL amount of rehydration buffer (6M urea, 2M thiourea, 2% CHAPS, 100 mM DTT, 0.5% 3-10 ampholytes) and 5 μL of 3-10 ampholytes (Bio-Rad). Sample rehydrated with a 13 cm 4-7 pH isoelectric focusing strip (GE Healthcare) overnight. Following rehydration, strips were placed in a Bio-Rad PROTEAN IEF Cell focusing instrument. Strips were first focused for 1 hour at 500 V, and then run at a maximum of 8,000V until the strips have reached a final total of 45,000 V/hrs at which point gels are held at 500V until removed. Focused strips were removed, reduced with DTT, cysteines carbamidomethylated with iodoacetamide, and run on a 4-20% gradient Criterion gel for 55 minutes at 200V. Gels were stained for stained according to manufacturer instructions with Imperial Blue Protein (ThermoScientific, Rockford, Ill.) and destained immediately with water. Gel bands were excised and trypsin digested.

[3] = biological target: T3, plasminogen (Pg) (Homo sapiens, UniProt P00747); assay: Chromogenic activity assay: activation of unmodified and MG-modified Pg to plasmin by tPA, uPA or STK on a fibrin matrix; assay type: biochemical; conditions: p<0.05
T3 construct: Glu-Pg, uPA, tPA, fibrinogen, and chromogenic substrate for Pn were purchased from Molecular Innovations (Novi, Mich.); purchased Molecular Innovations (Novi, Mich.)
Method: as §1
96-well plate was incubated with 200 μL of 260 nM fibrinogen in TBS for 40 min at room temperature. Fibrinogen solution was removed and replaced with 250 μL TBS containing 3% bovine serum albumin and 0.01% TWEEN for 90 minutes at 37° C. Blocking solution was removed and the plate was washed twice with solution of 50 mM Tris-HCl, 110 mM NaCl and 0.01% TWEEN (pH 7.4). 5 units/mL of thrombin and 5 mM CaCl2 in 50 mM Tris-HCl, 110 mM NaCl (pH 7.4) was added to the wells for 45 min. A high salt wash (1 M NaCl, 50 mM Tris-HCl, pH 7.4) followed by a TBS-TWEEN wash completed plate prep.
Into each well 198 μL of 10 mM HEPES/150 mM NaCl (pH 7.4) was added. Into each well, 2 μL of 25 mM chromogenic substrate for Pn (D-VLK-pNA) was added. To appropriate wells were added 2 μL of 20 μM Pg, either a 24-hour unmodified control or 24 hour 50-500 μM MG modified. Activators were added to respective wells to test activation of unmodified and modified Pg. 2 μL of each activator enzyme was utilized in appropriate wells for tPA (1.2 μM), uPA (5 μM) and STK (500 nM). Following enzyme addition, plate was immediately read on a SpectraMax M2 plate reader (Molecular Devices) every minute for 90 minutes at an absorbance of 405 nm.
Pg (10 μg) was incubated with MG (50-500 μM) in 10 mM HEPES/150 mM NaCl (pH 7.4) for 24 hours at 37° C. Following modification, sample volumes were increased to 150 μL and placed in 5 kDa spin filters to reduce volume and remove excess MG from solution. A 96-well plate was incubated with 200 μL of 260 nM fibrinogen in TBS for 40 min. at room temperature. Fibrinogen solution was removed and replaced with 250 μL TBS containing 3% bovine serum albumin and 0.01% TWEEN for 90 minutes at 37° C. Blocking solution was removed and the plate was washed twice with solution of 50 mM Tris-HCl, 110 mM NaCl and 0.01% TWEEN (pH 7.4). Thrombin (5 units/mL) and 5 mM CaCl2 in 50 mM Tris-HCl, 110 mM NaCl (pH 7.4) was added to the wells for 45 min. A high salt wash (1M NaCl, 50 mM Tris-HCl, pH 7.4) followed by a TBS-TWEEN wash completed plate prep. Into each well, 198 μL of 10 mM HEPES/150 mM NaCl (pH 7.4) and 2 μL of 25 mM chromogenic substrate for Pn (D-VLK-pNA) were added. To appropriate wells were added 2 μL of 20 μM Pg, either a 24-hour unmodified control or 24 hour 50-500 μM MG modified. Activators were added to respective wells to test activation of unmodified and modified Pg. Each activator enzyme (2 μL) was utilized in appropriate wells for tPA (12 nM), uPA (50 nM) and STK (5 nM) (Ajjan et al., 2013, Zhang et al., 2012). Following enzyme addition, plate was immediately read on a SpectraMax M2 plate reader (Molecular Devices) every minute for 90 minutes at an absorbance of 405 nm.

T3 sequence (P00747 20-810 limits assumed): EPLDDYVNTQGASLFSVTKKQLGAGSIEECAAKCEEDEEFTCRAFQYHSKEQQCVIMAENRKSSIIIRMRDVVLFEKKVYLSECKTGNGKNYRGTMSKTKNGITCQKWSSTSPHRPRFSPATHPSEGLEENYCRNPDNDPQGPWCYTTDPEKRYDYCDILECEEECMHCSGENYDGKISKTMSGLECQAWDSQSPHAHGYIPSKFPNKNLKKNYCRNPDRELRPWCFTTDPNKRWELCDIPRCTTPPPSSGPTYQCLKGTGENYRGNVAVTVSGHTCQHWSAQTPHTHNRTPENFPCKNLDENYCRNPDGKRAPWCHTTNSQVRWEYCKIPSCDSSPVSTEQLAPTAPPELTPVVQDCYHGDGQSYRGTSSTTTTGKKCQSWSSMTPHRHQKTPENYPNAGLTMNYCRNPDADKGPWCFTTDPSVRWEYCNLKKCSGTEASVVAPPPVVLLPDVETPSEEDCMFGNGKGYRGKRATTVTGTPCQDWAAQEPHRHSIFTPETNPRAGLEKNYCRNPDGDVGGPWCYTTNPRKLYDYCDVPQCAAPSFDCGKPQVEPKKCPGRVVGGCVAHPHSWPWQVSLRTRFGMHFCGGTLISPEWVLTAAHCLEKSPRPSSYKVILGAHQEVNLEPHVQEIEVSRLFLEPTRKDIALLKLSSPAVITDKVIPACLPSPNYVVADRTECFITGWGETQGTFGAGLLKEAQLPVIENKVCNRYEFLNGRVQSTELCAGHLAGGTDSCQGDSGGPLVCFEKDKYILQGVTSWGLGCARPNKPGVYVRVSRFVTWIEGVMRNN
T2 sequence (P00747 20-810 limits assumed): as above
T1 sequence (P02768 25-609): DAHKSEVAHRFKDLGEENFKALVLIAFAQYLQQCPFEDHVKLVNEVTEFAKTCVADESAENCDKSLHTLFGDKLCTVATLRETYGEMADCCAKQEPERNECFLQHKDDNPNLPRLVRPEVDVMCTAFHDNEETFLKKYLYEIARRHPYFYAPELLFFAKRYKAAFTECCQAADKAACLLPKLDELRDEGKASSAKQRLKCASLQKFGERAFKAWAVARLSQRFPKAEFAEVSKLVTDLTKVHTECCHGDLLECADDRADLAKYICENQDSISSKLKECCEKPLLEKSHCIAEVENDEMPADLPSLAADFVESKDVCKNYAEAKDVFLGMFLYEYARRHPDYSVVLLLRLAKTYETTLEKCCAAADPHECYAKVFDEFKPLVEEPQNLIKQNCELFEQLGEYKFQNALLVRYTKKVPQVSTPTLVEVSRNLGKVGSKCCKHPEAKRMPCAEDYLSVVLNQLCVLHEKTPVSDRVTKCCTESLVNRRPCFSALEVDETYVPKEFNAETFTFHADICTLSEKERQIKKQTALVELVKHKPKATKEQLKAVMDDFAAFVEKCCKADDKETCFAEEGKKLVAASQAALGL

## CC(=O)C=O [MG, Methylglyoxal]
[1]
  MG concentrations that displace prodan from prodan-HSA complex: above 300 μM
[2]
  pI of MG-modified Pg: 5.8-6.7
[3]; STK 5 nM, Pg modified 24 hours with 100 μM MG
  time at which significant delay in activation of MG-modified Pg is detectable: 16 min
[3]; STK 5 nM, Pg modified 24 hours with 500 μM MG
  time at which significant delay in activation of MG-modified Pg is detectable: 12 min
[3]; tPA 12 nM, Pg modified 24 hours with 100 μM MG
  time at which significant delay in activation of MG-modified Pg is detectable: 30 min
[3]; tPA 12 nM, Pg modified 24 hours with 500 μM MG
  time at which significant delay in activation of MG-modified Pg is detectable: 28 min
[3]; uPA 50 nM, Pg modified 24 hours with 500 μM MG
  time at which significant delay in activation of MG-modified Pg is detectable: 37 min
